Results: PubChem BioAssay (NCI)
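GI50: concentration for 50% inhibition of growth. Definition used: TGI = concentration required for complete inhibition of growth.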

What was measured:
Assay in all cases: DTP human tumour cell line panel, 384-well format
[1] = tested on: CCRF-CEM leukemia
[2] = tested on: PC-3 prostate
[3] = tested on: HCT-15 colon
[4] = tested on: DU-145 prostate
[5] = tested on: MCF7 breast
[6] = tested on: IGROV1 ovarian
[7] = tested on: OVCAR-4 ovarian
[8] = tested on: HOP-62 NSCLC
[9] = tested on: SR leukemia
[10] = tested on: UACC-257 melanoma
[11] = tested on: SK-MEL-28 melanoma
[12] = tested on: HT29 colon
[13] = tested on: BT-549 breast
[14] = tested on: SF-268 CNS
[15] = tested on: OVCAR-5 ovarian
[16] = tested on: COLO 205 colon
[17] = tested on: TK-10 renal
[18] = tested on: SK-OV-3 ovarian
[19] = tested on: CAKI-1 renal
[20] = tested on: MDA-MB-468 breast
[21] = tested on: M14 melanoma
[22] = tested on: OVCAR-3 ovarian
[23] = tested on: SN12C renal
[24] = tested on: SW-620 colon
[25] = tested on: K-562 leukemia
[26] = tested on: RPMI-8226 leukemia
[27] = tested on: HCT-116 colon
[28] = tested on: NCI-H23 lung
[29] = tested on: SNB-75 CNS
[30] = tested on: KM12 colon
[31] = tested on: NCI-H522 lung
[32] = tested on: HCC-2998 colon
[33] = tested on: MDA-MB-231 breast
[34] = tested on: NCI-H322M lung
[35] = tested on: LOX IMVI melanoma
[36] = tested on: NCI-H460 NSCLC
[37] = tested on: MDA-MB-435 melanoma
[38] = tested on: A498 renal
[39] = tested on: 786-0 renal
[40] = tested on: RXF 393 renal
[41] = tested on: NCI-H226 lung
[42] = tested on: OVCAR-8 ovarian
[43] = tested on: SK-MEL-5 melanoma
[44] = tested on: T-47D breast
[45] = tested on: HS 578T breast
[46] = tested on: SF-295 CNS
[47] = tested on: A549 NSCLC
[48] = tested on: NCI/ADR-RES ovarian
[49] = tested on: MOLT-4 leukemia
[50] = tested on: HOP-92 NSCLC
[51] = tested on: SF-539 CNS
[52] = tested on: U251 glioblastoma
[53] = tested on: SNB-19 CNS
[54] = tested on: ACHN renal
[55] = tested on: MALME-3M melanoma
[56] = tested on: EKVX NSCLC
[57] = tested on: UO-31 renal
[58] = tested on: HL-60(TB) leukemia
[59] = tested on: UACC-62 melanoma
[60] = tested on: SK-MEL-2 melanoma

Compound `CCCS(=O)(=O)Nc1ccc(F)c(C(=O)c2c[nH]c3ncc(Cl)cc23)c1F` has a GI50 [1] of 11.7 µM, a TGI [1] of 24 µM and a GI50 [2] of 16.3 µM. For the same compound, the TGI [2] was 41 µM, the GI50 [3] was 9.16 µM and the TGI [3] was 22 µM. It also gave a GI50 [4] of 9.18 µM, a TGI [4] of 27.9 µM and a GI50 [5] of 20.3 µM. The TGI [5] was 50.7 µM, the GI50 [6] was 4.47 µM and the TGI [6] was 17.3 µM. The GI50 [7] was 21.1 µM, the TGI [7] was 59.1 µM and the GI50 [8] was 13.3 µM. The TGI [8] was 32.5 µM, the GI50 [9] was 3.93 µM and the TGI [9] was 14.2 µM. It also gave a GI50 [10] of 0.183 µM, a TGI [10] of 1.18 µM and a GI50 [11] of 0.0544 µM. The TGI [11] was 0.549 µM, the GI50 [12] was 0.71 µM and the TGI [12] was 17.1 µM. For the same compound, the GI50 [13] was 15.5 µM, the TGI [13] was 29.3 µM and the GI50 [14] was 17.5 µM. The TGI [14] was 44.7 µM, the GI50 [15] was 19.2 µM and the TGI [15] was 64.3 µM. The GI50 [16] was 0.144 µM, the TGI [16] was 13.6 µM and the GI50 [17] was 10.3 µM. For the same compound, the TGI [17] was 28.4 µM, the GI50 [18] was 4.11 µM and the TGI [18] was 19.8 µM. It also gave a GI50 [19] of 6.54 µM, a TGI [19] of 46 µM and a GI50 [20] of 10.3 µM. The TGI [20] was 23.5 µM, the GI50 [21] was 0.0582 µM and the TGI [21] was 2.1 µM. It also gave a GI50 [22] of 13.5 µM, a TGI [22] of 29.7 µM and a GI50 [23] of 19.6 µM. The TGI [23] was 68.3 µM, the GI50 [24] was 31.6 µM and the TGI [24] was 60 µM. It also gave a GI50 [25] of 11.3 µM, a TGI [25] of 23.7 µM and a GI50 [26] of 4.76 µM. The TGI [26] was 15.7 µM, the GI50 [27] was 8.39 µM and the TGI [27] was 23.8 µM. It also gave a GI50 [28] of 18.3 µM, a TGI [28] of 37.8 µM and a GI50 [29] of 11.2 µM. The TGI [29] was 34.2 µM, the GI50 [30] was 14.3 µM and the TGI [30] was 33.3 µM. It also gave a GI50 [31] of 16.1 µM, a TGI [31] of 32.1 µM and a GI50 [32] of 20.6 µM. It also gave a TGI [32] of 35.1 µM, a GI50 [33] of 15.3 µM and a TGI [33] of 29.8 µM. For the same compound, the GI50 [34] was 10.1 µM, the TGI [34] was 80.2 µM and the GI50 [35] was 2.64 µM. It also gave a TGI [35] of 15.9 µM, a GI50 [36] of 6.96 µM and a TGI [36] of 21.3 µM. For the same compound, the GI50 [37] was 0.681 µM, the TGI [37] was 17.7 µM and the GI50 [38] was 5.21 µM. For the same compound, the TGI [38] was 20.3 µM, the GI50 [39] was 10.9 µM and the TGI [39] was 25.6 µM. It also gave a GI50 [40] of 4.12 µM, a TGI [40] of 13.8 µM and a GI50 [41] of 16.5 µM. It also gave a TGI [41] of 32.6 µM, a GI50 [42] of 13.5 µM and a TGI [42] of 39.5 µM. The GI50 [43] was 1.05 µM, the TGI [43] was 15 µM and the GI50 [44] was 17.7 µM. For the same compound, the TGI [44] was 55.6 µM, the GI50 [45] was 4.5 µM and the TGI [45] was 15.4 µM. For the same compound, the GI50 [46] was 7.44 µM, the TGI [46] was 27.3 µM and the GI50 [47] was 12.3 µM. It also gave a TGI [47] of 41.2 µM, a GI50 [48] of 17.1 µM and a TGI [48] of 33.6 µM. For the same compound, the GI50 [49] was 12.3 µM, the TGI [49] was 24.9 µM and the GI50 [50] was 15 µM. The TGI [50] was 36.3 µM, the GI50 [51] was 15.1 µM and the TGI [51] was 35.3 µM. The GI50 [52] was 13.1 µM, the TGI [52] was 27.2 µM and the GI50 [53] was 31.3 µM. It also gave a TGI [53] of 86 µM, a GI50 [54] of 4.26 µM and a TGI [54] of 18.7 µM. For the same compound, the GI50 [55] was 0.0363 µM, the TGI [55] was 0.118 µM and the GI50 [56] was 16.3 µM. The TGI [56] was 41.3 µM, the GI50 [57] was 13.3 µM and the TGI [57] was 36.6 µM. The GI50 [58] was 11.2 µM and the TGI [58] was 23.3 µM.

`O=NN(CCCl)C(=O)NCCCl` was tested, and the GI50 [1] was 22.3 µM, the TGI [1] was 40.9 µM and the GI50 [3] was 46.5 µM. For the same compound, the GI50 [8] was 34.6 µM, the GI50 [13] was 36 µM and the GI50 [14] was 15.9 µM. For the same compound, the GI50 [19] was 81.2 µM, the GI50 [20] was 23.7 µM and the GI50 [21] was 69.9 µM. It also gave a GI50 [23] of 74.1 µM, a GI50 [24] of 54.2 µM and a GI50 [25] of 46.5 µM. For the same compound, the GI50 [26] was 20 µM, the TGI [26] was 48.7 µM and the GI50 [27] was 49.8 µM. It also gave a GI50 [29] of 26.7 µM, a GI50 [31] of 32.4 µM and a GI50 [33] of 55.9 µM. It also gave a GI50 [35] of 24.2 µM, a GI50 [59] of 19.4 µM and a GI50 [39] of 43.3 µM. The GI50 [40] was 56.9 µM, the GI50 [42] was 97.8 µM and the GI50 [46] was 25.4 µM. It also gave a TGI [46] of 73 µM, a GI50 [49] of 15.6 µM and a TGI [49] of 29.5 µM. It also gave a GI50 [51] of 24.4 µM, a TGI [51] of 90.1 µM and a GI50 [52] of 23.9 µM. It also gave a GI50 [53] of 56.2 µM, a GI50 [55] of 75.9 µM and a GI50 [60] of 61.5 µM. It also gave a GI50 [58] of 15.1 µM and a TGI [58] of 28.5 µM.
